The results in this text go back to patent US20240299496A1, “DRUG FOR TREATING FATTY LIVER AND NONALCOHOLIC STEATOHEPATITIS” (Osaka University, priority 2021, published 2024).

Where no end group is shown, it is not given here.

The series has as its system NASH model mice (MC4R-KO mice fed a high-fat diet). The series can be described thus: Body weight and liver weight of NASH model mice. To be noted: 5 mg/kg tail vein injection twice a week for four weeks, t-test. It counts as in vivo, mouse. From the text:
Melanocortin-4 receptor knockout mice (hereinafter also referred to as “MC4R-KO mice,” genetic background: C57BL/6J) were provided by Dr. Joel K Elmquist of University of Texas, Medical Center.
Subsequently, NASH was induced in the mice by feeding a high-fat diet to the MC4R-KO mice, as detailed in the below reference. […] Later, the diet was switched from the normal diet to a high-fat diet (HFD) and the high-fat diet was fed for 20 weeks. Thereby, NASH was developed in the mice. • Itoh M, Suganami T, Nakagawa N, et al. Melanocortin 4 receptor-deficient mice as a novel mouse model of nonalcoholic steatohepatitis. Am J Pathol 2011; 179: 2454-63.
Here, CE-2 (manufactured by CLEA Japan, Inc.) was used as the normal diet, and Western Diet (manufactured by EPS EKISHIN Co., Ltd., containing 0.21% of cholesterol+41% kcal of milk fat) was used as the high-fat diet.
Experiments were carried out by dividing the mice into two groups of an HMGB1 peptide administration group (HMGB1 administration group) and a control group (normal saline; NS administration; CTRL administration group). […]
The mice were euthanized twenty weeks after initiating the high-fat diet, and arterial blood was collected from the heart of the mice. […] In all of the following statistical analyses, significance was calculated by a t-test.

For the sequence “MGKGDPKKPRGKMSSYAFFVQTCREEHKKKHPDASVNFSEFSKK [HMGB1 peptide]”, the “change of the body weight” value (from initiating administration until completion of breeding, vs control group) is recorded as “significant differences were not observed”. The body weight result (twenty weeks after initiating high-fat diet, vs control group (normal saline)) is given as “significant differences were not observed”.
